Structures are written as SMILES. pEC50: −log10 of the molar value.

The text below walks through data of patent US6013244A, “21-(2-oxo-tetrahydrofuran)-thio pregnane derivatives, a process for their production and pharmaceutical compositions containing them” (Glaxo Wellcome Inc., priority 1995, dated 2000).

The test system of data set [1] is Adrenocorticotrophic hormone (ACTH). Put plainly: Systemic Effects - ACTH Suppression in Adrenalectomised Rats. To be noted: adrenalectomised male CD rats, plasma. Type of data set: in vivo. How it is done:
(II) Systemic Effects--ACTH Suppression in Adrenalectomised Rats
Male CD rats (90-120 g) were adrenalectomised under Isoflurane anaesthesia and drinking water was supplemented with 0.9% saline. Four days later the animals receive a single intravenous dose of compound dissolved in DMA/PEG-200/distilled water (1:6:3) (0.2 ml) at 10 am. At 2 h and 4 h afterwards animals are sacrificed by administration of Euthetal and blood samples are taken by intra-cardiac puncture and collected into heparinised tubes. The samples are centrifuged (20 minutes at 1000 RPM at 4 deg C), the plasma is collected and assayed by Radioimmunoassay (RIA) for Adrenocorticotrophic hormone (ACTH) using a DPC double antibody RIA kit. Intact and vehicle control groups for each time point assessed were included in each experiment in order to account for diurnal variation in ACTH and effects of vehicle. Results are calculated with respect to the RIA standard curve and expressed as ACTH pg/ml plasma, allowing percentage reduction in ACTH to be calculated.

The subject of the next data set is lung eosinophilia. Put plainly: Inhibition of lung eosinophilia in Brown Norway rats. To be noted: OVA-sensitised male Brown Norway rats, lung lavage on day 16. Type of data set: in vivo. How it is done:
(i) Anti-inflammatory Activity--Inhibition of lung eosinophilia in Brown Norway rats
Male Brown norway rats (150-180 g) are sensitised with 1 ml intra-peritoneally (ip) containing 10 mg Al (OH)3 +1 mg Ovalbumin (OVA) on day 1. On day 7 each rat received 1 ml ip containing 10 mg Al(OH)3 +100 ug OVA. On day 14, each rat received an intratracheal (IT) dose of compound or vehicle (0.2 ml), under isoflurane anaesthesia. Compounds are suspended in 0.9% saline/0.2% Tween 80. 4 h after compound administration, each animal receives 400 ug OVA in saline IT (0.2 ml). On day 16, animals are killed and the lungs lavaged with 5 mls of lavage fluid (10 mM EDTA, phosphate buffered saline (pH 7.4), 5 units heparin/ml, 0.1% BSA). The samples are centrifuged at 1000 RPM for 10 minutes. The supernatant is removed and the cells resuspended in 0.5 ml lavage fluid. Total cells are counted with a Sysmex counter. Cytospin slides are prepared using 75 ul of the cell suspension and the cells are stained with May-Grunwald stain. Differential cell counts are performed using a microscope. Numbers of eosinophils are calculated per ul of lavage fluid per rat allowing percentage reduction in eosinophilia to be calculated.

Data set [2] addresses T1, Human Glucocorticoid Receptor (Homo sapiens, UniProt P04150).
T1 construct: endogenous in cells; host or cells: HeLa cells stably transfected with the MMTV-LTR/sPAP reporter
T1 sequence (P04150 1-777): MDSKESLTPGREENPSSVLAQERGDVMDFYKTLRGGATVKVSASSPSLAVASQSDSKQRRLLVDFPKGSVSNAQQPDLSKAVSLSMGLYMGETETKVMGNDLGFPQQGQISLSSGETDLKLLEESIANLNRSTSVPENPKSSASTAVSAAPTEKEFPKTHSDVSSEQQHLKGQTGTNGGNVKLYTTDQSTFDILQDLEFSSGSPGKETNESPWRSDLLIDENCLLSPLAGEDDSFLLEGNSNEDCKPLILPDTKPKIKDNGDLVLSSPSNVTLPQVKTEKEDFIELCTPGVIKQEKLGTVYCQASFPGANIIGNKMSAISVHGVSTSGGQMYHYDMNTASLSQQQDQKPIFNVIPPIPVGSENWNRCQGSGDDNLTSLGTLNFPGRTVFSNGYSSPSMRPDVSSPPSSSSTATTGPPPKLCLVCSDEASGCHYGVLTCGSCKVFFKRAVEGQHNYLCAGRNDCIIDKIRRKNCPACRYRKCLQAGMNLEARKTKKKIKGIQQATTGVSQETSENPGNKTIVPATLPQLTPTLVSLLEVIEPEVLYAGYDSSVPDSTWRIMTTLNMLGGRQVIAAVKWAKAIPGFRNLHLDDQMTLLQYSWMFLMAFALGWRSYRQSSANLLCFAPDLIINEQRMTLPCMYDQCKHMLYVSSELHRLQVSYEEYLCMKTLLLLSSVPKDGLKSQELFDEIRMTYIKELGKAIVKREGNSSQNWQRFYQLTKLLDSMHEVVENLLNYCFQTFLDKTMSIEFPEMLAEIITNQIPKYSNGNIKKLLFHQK
Put plainly: functional in vitro glucocorticoid assay, MMTV-sPAP reporter gene in transfected Hela cells. Type of data set: cell-based. How it is done:
The functional assay used was a modification of the method described by T. S Berger et al, of J. of Steroid Biochem. Molec.
Thus, Hela cells were stably transfected with a detectable reporter gene (secreted placental alkaline phosphatase, sPAP) under the control of a glucocorticoid response promoter (the LTR of the mouse mammary tumour virus, MMTV). Various concentrations of standard (dexamethasone) or compounds of the invention were incubated with transfected Hela cells for 72 hours. At the end of the incubation, substrate ([…]) for sPAP was added and the product measured by a spectrophotometric method. Increased absorbance reflected increased sPAP transcription and concentration-response lines were constructed such that EC50 -values could be estimated.
For orientation: A reporter such as luciferase makes a cellular process visible.

Setting [3] is: dose 6.25 μg single intravenous.

On to `CC1(C)O[C@@H]2C[C@H]3[C@@H]4C[C@H](F)C5=CC(=O)C=C[C@]5(C)[C@@]4(F)[C@@H](O)C[C@]3(C)[C@]2(C(=O)CS[C@H]2CCOC2=O)O1` (single isomer, unassigned) [Example 3 Isomer A, 6α,9α-Difluoro-11β-hydroxy-16α,17α-isopropylidenedioxy-21-(2-oxo-tetrahydro-furan-3S-yl-sulfanyl)-pregna-1,4-diene-3,20-dione], for which, in data set [1] (dose 500 μg single intravenous), the “% Reduction in ACTH at 2 h” value was found to be 16% and the “% Reduction in ACTH at 4 h” value was 15%. Besides, the “% Reduction in Eosinophilia” value with lung eosinophilia (dose 250 μg intratracheal) is 74%. Besides, in the data set on lung eosinophilia (dose 750 μg intratracheal), the “% Reduction in Eosinophilia” value was 97%.
For `CCCC1O[C@@H]2C[C@H]3[C@@H]4CCC5=CC(=O)C=C[C@]5(C)[C@H]4[C@@H](O)C[C@]3(C)[C@]2(C(=O)CSC2CCOC2=O)O1` (single isomer, unassigned) [Example 9 isomer A, 16α,17α-Butylidenedioxy-11β-hydroxy-21-(2-oxo-tetrahydrofuran-3-yl-sulfanyl)-pregna-1,4-diene-3,20-dione], the pEC50 in data set [2] is more than 6.22.
Turning to `CCCC1O[C@@H]2C[C@H]3[C@@H]4CCC5=CC(=O)C=C[C@]5(C)[C@H]4[C@@H](O)C[C@]3(C)[C@]2(C(=O)CO)O1` (stereo partly drawn) [Budesonide, reference compound], in data set [1] (setting [3]), the “% Reduction in ACTH at 2 h” value came out at 61% and the “% Reduction in ACTH at 4 h” value was determined as 32%. Also, the “% Reduction in Eosinophilia” value in the data set on lung eosinophilia (dose 250 μg intratracheal) was 82%.
Regarding `CCC(=O)O[C@]1(C(=O)CSC2CCOC2=O)[C@H](C)C[C@H]2[C@@H]3C[C@H](F)C4=CC(=O)C=C[C@]4(C)[C@@]3(F)[C@@H](O)C[C@@]21C` (stereo partly drawn) [Example 1, 6α,9α-Difluoro-11β-hydroxy-16α-methyl-21-(2-oxo-tetrahydro-furan-3-yl-sulfanyl)-17α-propionyloxy-pregna-1,4-diene-3,20-dione], the pEC50 in data set [2] is more than 6.22.
Compound `CCC(=O)O[C@]1(C(=O)CSC2CCOC2=O)[C@H](C)C[C@H]2[C@@H]3C[C@H](F)C4=CC(=O)CC[C@]4(C)[C@@]3(F)[C@@H](O)C[C@@]21C` (stereo partly drawn) [Example 2, 6α,9α-Difluoro-11β-hydroxy-16α-methyl-21-(2-oxo-tetrahydro-furan-3-yl-sulfanyl)-17α-propionyloxy-pregn-4-ene-3,20-dione] showed a pEC50 in data set [2] of more than 6.22.
In data set [2], `CC1(C)O[C@@H]2C[C@H]3[C@@H]4C[C@H](F)C5=CC(=O)CC[C@]5(C)[C@@]4(F)[C@@H](O)C[C@]3(C)[C@]2(C(=O)CSC2CCOC2=O)O1` (stereo partly drawn) [Example 6, 6α,9α-Difluoro-11β-hydroxy-16α,17α-isopropylidenedioxy-21-(2-oxo-tetrahydro-furan-3-yl-sulfanyl)-pregn-4-ene-3,20-dione] gave a pEC50 of more than 6.22.
The same measure, in the same setting: then `CCC[C@@H]1O[C@@H]2C[C@H]3[C@@H]4C[C@H](F)C5=CC(=O)C=C[C@]5(C)[C@@]4(F)[C@@H](O)C[C@]3(C)[C@]2(C(=O)CSC2CCOC2=O)O1` (stereo partly drawn) [Example 7, 16α,17α-(R-Butylidenedioxy)-6α,9α-difluoro-11β-hydroxy-21-(2-oxo-tetrahydro-furan-3-yl-sulfanyl)-pregna-1,4-diene-3,20-dione], with more than 6.22; and `CCC[C@@H]1O[C@@H]2C[C@H]3[C@@H]4C[C@H](F)C5=CC(=O)CC[C@]5(C)[C@@]4(F)[C@@H](O)C[C@]3(C)[C@]2(C(=O)CSC2CCOC2=O)O1` (stereo partly drawn) [Example 8, 16α,17α-(R-Butylidenedioxy)-6α,9α-difluoro-11β-hydroxy-21-(2-oxo-tetrahydro-furan-3-yl-sulfanyl)-pregn-4-ene-3,20-dione], with more than 6.22.
On to `CC1(C)O[C@@H]2C[C@H]3[C@@H]4C[C@H](F)C5=CC(=O)C=C[C@]5(C)[C@@]4(F)[C@@H](O)C[C@]3(C)[C@]2(C(=O)CSC2COC(=O)C2)O1` (stereo partly drawn) [Example 10, 6α,9α-Difluoro-11β-hydroxy-16α,17α-isopropylidenedioxy-21-(2-oxo-tetrahydro-furan4-yl-sulfanyl)-pregna-1,4-diene-3,20-dione], for which the pEC50 in data set [2] was more than 6.22.
Still for that read-out and setting: the value for `CCC[C@@H]1O[C@@H]2C[C@H]3[C@@H]4C[C@H](F)C5=CC(=O)CC[C@]5(C)[C@@]4(F)[C@@H](O)C[C@]3(C)[C@]2(C(=O)CSC2COC(=O)C2)O1` (stereo partly drawn) [Example 11, 16α,17α-(R-Butylidenedioxy)-6α,9α-difluoro-11β-hydroxy-21-(2-oxo-tetrahydro-furan-4-yl-sulfanyl)-pregn-4-ene-3,20-dione] was more than 6.22.

As a reminder, the pEC50 is −log10 of the EC50, conventionally taken in molar units.
